Results as given in the supplement of paper PMC11061612.

Assays:
[1] = compound: CC1=C(C(=CC=C1)Cl)NC(=O)C2=CN=C(S2)NC3=CC(=NC(=N3)C)N4CCN(CC4)CCO [Dasatinib]; conditions: max 2 µM
Outline: (§1)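 After 24 hours at 37°C and 5% CO2 in 1536-well plates holding 7.5 μl of DMEM/F12 or RPMI with 10% FBS, cancer cell lines were dosed for 72 hours, with final DMSO typically 0.2%. Viability came from CellTiter-Glo 2.0 luminescence, scaled between the means of blank wells and DMSO wells. A non-linear mixed effects model fitted a two-parameter logistic curve to each dose response to give the single-agent IC50.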

[2] = compound: Nc1ccn([C@@H]2O[C@H](CO)[C@@H](O)C2(F)F)c(=O)n1 [Gemcitabine]; conditions: max 0.3 µM
Outline: as §1

[3] = compound: COc1cc(Nc2ncc3c(n2)-c2ccc(Cl)cc2C(c2c(F)cccc2OC)=NC3)ccc1C(=O)O [Alisertib]; conditions: max 10 µM
Outline: as §1

[4] = compound: CC1=CN2[C@@H](C1)C=NC3=CC(=C(C=C3C2=O)OC)OCCCCCOC4=C(C=C5C(=C4)N=C[C@@H]6CC(=CN6C5=O)C)OC [SG3199]; conditions: max 0.001 µM
Outline: as §1

[5] = compound: NC1(c2ccc(-c3nc4ccn5c(=O)[nH]nc5c4cc3-c3ccccc3)cc2)CCC1 [MK-2206]; conditions: max 10 µM
Outline: as §1

[6] = compound: CC(=O)O[C@H]1C(=O)[C@@]2(C)[C@H]([C@H](OC(=O)c3ccccc3)[C@]3(O)C[C@H](OC(=O)[C@H](O)[C@@H](NC(=O)c4ccccc4)c4ccccc4)C(C)=C1C3(C)C)[C@]1(OC(C)=O)CO[C@@H]1C[C@@H]2O [Paclitaxel]; conditions: max 3 µM
Outline: as §1

[7] = compound: CC(C)n1c(=O)n(C)c2cnc3cc(F)c(-c4ccc(OCCCN5CCCCC5)nc4)cc3c21 [AZD1390]; conditions: max 0.3 µM
Outline: as §1

[8] = compound: O=C(c1cc(Cc2n[nH]c(=O)c3ccccc23)ccc1F)N1CCN(C(=O)C2CC2)CC1 [Olaparib]; conditions: max 10 µM
Outline: as §1

[9] = compound: COc1cccc2c1C(=O)c1c(O)c3c(c(O)c1C2=O)C[C@@](O)(C(=O)CO)C[C@@H]3O[C@H]1C[C@H](N)[C@H](O)[C@H](C)O1 [Doxorubicin]; conditions: max 1 µM
Outline: as §1

[10] = compound: Cc1c2c(nn1C)CSCc1cc(n(C)n1)CSc1cc(c3ccccc3c1)OCCCc1c(C(=O)O)n(C)c3c-2c(Cl)ccc13 [AZD5991]; conditions: max 1 µM
Outline: as §1

[11] = compound: Cn1cnc2c(F)c(Nc3ccc(Br)cc3Cl)c(C(=O)NOCCO)cc21 [Selumetinib]; conditions: max 10 µM
Outline: as §1

[12] = compound: CC1(C)CCC(CN2CCN(c3ccc(C(=O)NS(=O)(=O)c4ccc(NCC5CCOCC5)c([N+](=O)[O-])c4)c(Oc4cnc5[nH]ccc5c4)c3)CC2)=C(c2ccc(Cl)cc2)C1 [Venetoclax]; conditions: max 1 µM
Outline: as §1

[13] = compound: CCc1c2c(nc3ccc(O)cc13)-c1cc3c(c(=O)n1C2)COC(=O)[C@]3(O)CC [SN-38]; conditions: max 0.3 µM
Outline: as §1

[14] = compound: COc1cc2ncnc(Nc3ccc(F)c(Cl)c3)c2cc1OCCCN1CCOCC1 [Gefitinib]; conditions: max 10 µM
Outline: as §1

[15] = compound: COc1nnc2ccc(N3CCC(c4ccc(OCCN5CCN(C)C(=O)[C@H]5C)cc4)CC3)nn12 [AZD5153]; conditions: max 1 µM
Outline: as §1

[16] = compound: O=C(Nc1ccc2[nH]nc(-c3ccncc3)c2c1)[C@@H]1CCN(CC(=O)N2CCN(c3ccc(-c4ncccn4)cc3)CC2)C1; conditions: max 5 µM
Outline: as §1

[17] = compound: COc1cc([C@@H]2c3cc4c(cc3[C@@H](O[C@@H]3O[C@@H]5CO[C@@H](C)O[C@H]5[C@H](O)[C@H]3O)[C@H]3COC(=O)[C@H]23)OCO4)cc(OC)c1O [Etoposide]; conditions: max 10 µM
Outline: as §1

[18] = compound: COc1cccc(OCCCN)c1-c1cc(Nc2cnc(C#N)cn2)n[nH]1 [Prexasertib]; conditions: max 1 µM
Outline: as §1

[19] = compound: CN(C)CCCOc1ccc(-c2ccc3ncc4c(c3c2)n(C2CCOCC2)c(=O)n4C)cn1 [AZD0156]; conditions: max 3 µM
Outline: as §1

[20] = compound: N#Cc1cnc(Nc2cc(NC[C@H]3CNCCO3)c(C(F)(F)F)cn2)cn1 [SRA737]; conditions: max 10 µM
Outline: as §1

[21] = compound: CS(=O)(=O)CCNCc1ccc(-c2ccc3ncnc(Nc4ccc(OCc5cccc(F)c5)c(Cl)c4)c3c2)o1 [Lapatinib]; conditions: max 10 µM
Outline: as §1

[22] = compound: Cc1nc(-c2cn3c(n2)-c2ccc(-c4cnn(C(C)(C)C(N)=O)c4)cc2OCC3)n(C(C)C)n1 [Taselisib]; conditions: max 10 µM
Outline: as §1

[23] = compound: CC(=O)Nc1cccc(-n2c(=O)n(C3CC3)c(=O)c3c(Nc4ccc(I)cc4F)n(C)c(=O)c(C)c32)c1 [Trametinib]; conditions: max 1 µM
Outline: as §1

[24] = compound: CCN(CCO)CCCOc1ccc2c(Nc3cc(CC(=O)Nc4cccc(F)c4)[nH]n3)ncnc2c1 [AZD2811]; conditions: max 1 µM
Outline: as §1

[25] = compound: C=CCn1c(=O)c2cnc(Nc3ccc(N4CCN(C)CC4)cc3)nc2n1-c1cccc(C(C)(C)O)n1 [AZD1775]; conditions: max 3 µM
Outline: as §1

[26] = compound: CN(CC[C@H](CSC1=CC=CC=C1)NC2=C(C=C(C=C2)S(=O)(=O)NC(=O)C3=CC=C(C=C3)N4CCC(CC4)[C@H](C5=CC=CC=C5C6=CC=C(C=C6)Cl)O)S(=O)(=O)C(F)(F)F)CCO [AZD4320]; conditions: max 1 µM
Outline: as §1

[27] = compound: C1CN(CCC1(C(=O)N[C@@H](CCO)C2=CC=C(C=C2)Cl)N)C3=NC=NC4=C3C=CN4 [AZD5363]; conditions: max 10 µM
Outline: as §1

[28] = compound: C[C@@H]1COCCN1C2=NC(=NC(=C2)C3(CC3)[S@](=N)(=O)C)C4=C5C=CNC5=NC=C4 [AZD6738]; conditions: max 10 µM
Outline: as §1

[29] = compound: C1CC(C1)(C(=O)[O-])C(=O)[O-].N.N.[Pt+2] [Carboplatin]; conditions: max 10 µM
Outline: as §1

[30] = compound: O=c1[nH]cc(F)c(=O)[nH]1 [5-Fluorouracil]; conditions: max 20 µM
Outline: as §1

[31] = compound: C[C@@H](c1ccc2nccn2c1)n1nnc2ncc(-c3cnn(C)c3)nc21 [Savolitinib]; conditions: max 1 µM
Outline: as §1

[32] = compound: C[C@@H](Nc1cc(F)cc(F)c1)c1cc(C(=O)N(C)C)cc2c(=O)cc(N3CCOCC3)oc12 [AZD8186]; conditions: max 10 µM
Outline: as §1

[33] = compound: C[C@@H](Oc1cc(-c2cnn(C3CCNCC3)c2)cnc1N)c1c(Cl)ccc(F)c1Cl [Crizotinib]; conditions: max 10 µM
Outline: as §1

[34] = compound: CC(=O)c1c(C)c2cnc(Nc3ccc(N4CCNCC4)cn3)nc2n(C2CCCC2)c1=O [Palbociclib]; conditions: max 10 µM
Outline: as §1

[35] = compound: Cc1cc2ncnn2cc1Nc1ncc2c(n1)n(C1CCOCC1)c(=O)n2C [AZD7648]; conditions: max 10 µM
Outline: as §1

Cell Line	IC50, cell viability 72 h [1] [µM]	IC50, cell viability 72 h [2] [µM]	IC50, cell viability 72 h [3] [µM]	IC50, cell viability 72 h [4] [µM]	IC50, cell viability 72 h [5] [µM]	IC50, cell viability 72 h [6] [µM]	IC50, cell viability 72 h [7] [µM]	IC50, cell viability 72 h [8] [µM]	IC50, cell viability 72 h [9] [µM]	IC50, cell viability 72 h [10] [µM]	IC50, cell viability 72 h [11] [µM]	IC50, cell viability 72 h [12] [µM]	IC50, cell viability 72 h [13] [µM]	IC50, cell viability 72 h [14] [µM]	IC50, cell viability 72 h [15] [µM]	IC50, cell viability 72 h [16] [µM]	IC50, cell viability 72 h [17] [µM]	IC50, cell viability 72 h [18] [µM]	IC50, cell viability 72 h [19] [µM]	IC50, cell viability 72 h [20] [µM]	IC50, cell viability 72 h [21] [µM]	IC50, cell viability 72 h [22] [µM]	IC50, cell viability 72 h [23] [µM]	IC50, cell viability 72 h [24] [µM]	IC50, cell viability 72 h [25] [µM]	IC50, cell viability 72 h [26] [µM]	IC50, cell viability 72 h [27] [µM]	IC50, cell viability 72 h [28] [µM]	IC50, cell viability 72 h [29] [µM]	IC50, cell viability 72 h [30] [µM]	IC50, cell viability 72 h [31] [µM]	IC50, cell viability 72 h [32] [µM]	IC50, cell viability 72 h [33] [µM]	IC50, cell viability 72 h [34] [µM]	IC50, cell viability 72 h [35] [µM]
A2780 (Ovarian Carcinoma)	> 2	0.00845	0.386	> 0.001	1.61	0.00438	> 0.3	9.95	0.0483	0.964	3.53	> 1	0.0113	> 10	0.0737	0.243	0.582	0.334	> 3	> 10	> 10	0.117	0.0391	0.37	0.813	> 1	1.83	3.65	> 10	9.03	> 1	1.38	2.19	1.16	9.29
CGTH-W-1 (Thyroid Gland Carcinoma)	0.544	0.119	> 10	> 0.001	> 10	2.59	> 0.3	> 10	0.934	> 1	> 10	> 1	0.0308	> 10	> 1	> 5	> 10	0.129	> 3	> 10	> 10	9.16	> 1	> 1	> 3	> 1	> 10	> 10	> 10	> 20	> 1	> 10	> 10	> 10	> 10
EB2 (Burkitt's Lymphoma)	0.494	0.0138	7.23	> 0.001	3.04	0.0301	> 0.3	> 10	0.0297	> 1	> 10	> 1	0.00403	> 10	0.348	> 5	0.198	0.0078	> 3	1.03	> 10	2.02	> 1	> 1	0.348	> 1	3.27	1.63	> 10	> 20	> 1	4.92	6.78	> 10	> 10
EW-7 (Ewing's Sarcoma)	> 2	0.0047	2.15	> 0.001	5.63	0.0408	> 0.3	> 10	0.101	> 1	> 10	> 1	0.00552	> 10	> 1	> 5	0.253	0.00528	> 3	0.908	> 10	0.155	> 1	> 1	0.308	0.943	4.5	1.16	> 10	> 20	> 1	> 10	3.46	> 10	9.44
